Assay results reported in article PMC12472621, “Excavating Precursors from Herb Pairs Polygala tenuifolia and Acori tatarinowii: Synthesis and Anticonvulsant Activity Evaluation of 3,4,5-Trimethoxycinnamic Acid (TMCA) Piperazine Amide Derivatives” (Pharmaceuticals, 2025).
Like-named read-outs stand apart in the source and are kept apart here.

Columns and labels:
[1] = Acute neurotoxicity screening (rotarod test); assay type: in vivo, mice; conditions: male, Kunming, mouse, in vivo, ip, 30 min post-administration, 95% confidence intervals in parentheses
Description: (§1) Male Kunming mice (23–28 g) were maintained under controlled conditions with ad libitum access to standard pellet diet and water. Test compounds were formulated immediately prior to administration in normal saline containing 0.5% Tween-80. Our experiment was authorized by the Institutional Animal Care and Use Committee of Shaanxi University of Chinese Medicine (animal ethics certificate number: SUCMDL20210309027).
(§2) Neurotoxicity was assessed via a rotarod test. Mice were trained to maintain balance on a rotating rod (diameter: 4 cm; 24 rpm). Trained animals received i.p. injections of test compounds or reference drugs. At 30 min post-administration, neurologic impairment was defined as failure to remain on the rod for 3 min (≥3 falls within the testing period). Data were used to calculate TD50 values.

mice [2] = assay: Acute neurotoxicity screening (rotarod test); assay type: in vivo; conditions: i.p., 30 min post-administration, 95% confidence intervals in parentheses
Description: as §1, §2

scPTZ-induced seizures [3] = assay: Pentylenetetrazole (PTZ)-induced seizure test (scPTZ); assay type: in vivo; conditions: 100 mg/kg i.p., PTZ 85 mg/kg s.c., mice
Description: as §1
Seizures were induced by subcutaneous (s.c.) administration of PTZ (85 mg/kg in 1% v/v Tween-80/0.9% NaCl), 30 min after compound treatment. This dose produces clonic seizures (≥5 s duration) in 97% of naive mice. Latency to seizure onset was recorded during continuous observation.

[4] = system: maximal electroshock (MES) induced seizures; assay: Maximal electroshock (MES) test; assay type: in vivo, mice; conditions: Mus musculus, ip
Source text: as §1
The MES test carried out following the method of Swinyard. A 60 Hz current (50 mA; 0.25 s duration) was delivered via corneal electrodes using a YSD-4G electro convulsion meter (Zhenghua Instruments, Huaibei, China, SN: ZH0056232). […] Test compounds were suspended in an identical vehicle. Protection was defined as abolition of tonic hindlimb extension.

LDH enzyme = assay: In vitro LDH assay; assay type: biochemical
Description: Employing the commercial LDH enzyme (Solarbio Life Science, Beijing, China, CAS:9001-60-9, Lot. Document No. 14240222001) includes a colorimetric assay kit designed to assess the synthesized substances’ capacity to suppress the LDH enzyme, using established techniques with slight alterations. In summary, a 96-well microplate was filled with 30 μL of LDH enzyme (300 U/mL) and 70 μL of the inhibitor mixture (0.1 mM in final concentration). Following a 10 min pre-incubation process at ambient temperature, […] of NADH (0.2 mM) was introduced. Subsequently, each well received 40 μL of phosphate buffer (20 mM, pH 6.8), reaching a total volume of 250 μL, followed by a 10 min incubation of the assay plate at 28 °C. Subsequently, […] absorbance was gauged at 340 nm utilizing a SpectraMax 190 Absorbance Microplate Reader (Molecular Devices, San Jose, CA, USA). […] In the initial screening, the level of suppression by the test substances was denoted as a percentage (%). The calculation for the LDH inhibition ratio was as follows:Inhibition (%) = [(Asample − Ablank)/Acontrol] × 100%
Asample denotes the OD340 absorbance of test compound and Ablank is the OD340 absorbance for the blank. Acontrol represents the OD340 absorbance of control.

[5] = system: neurons in CA1 and CA3 regions of the hippocampus; assay: Silver staining of hippocampal tissue; assay type: in vivo; conditions: PTZ model mice, compared with PTZ group
Description: Following the creation of the PTZ model, a modified version of the silver impregnation staining technique was applied for silver staining, enabling the observation of changes in neuronal fibers and synapses throughout diseases. Brain tissue slices from each mouse, encased in paraffin, underwent deparaffinization using xylene and absolute ethanol, followed by a treatment in acidic formaldehyde, and then incubation in a glycine–silver mixture. Following the application of a reducing solution for staining, the samples were analyzed using an optical microscope. Against a yellow backdrop, nerve cells’ axons, dendrites, collagen fibers, and neurofibrillary tangles were colored in dark brown or black.

mice [6] = system: mice; parameters: method as in PMID 31539780; conditions: reference drug; cited from earlier work
scPTZ-induced seizures [7] = system: scPTZ-induced seizures; parameters: method as in PMID 31539780; conditions: reference drug; cited from earlier work
LDH [8] = assay: Immunofluorescence staining for LDH in hippocampus; assay type: in vivo; conditions: hippocampus CA1, PTZ model mice
Description: Brain samples were extracted, preserved in 4% paraformaldehyde for a day, and subsequently immersed in a 30% sucrose solution to dehydrate. Post OCT embedding, slices of brain tissue measuring 16 μm in thickness were sliced using a cryostat. Following the permeabilization using 0.5% TritonX-100 and subsequent blocking with 10% goat serum at ambient temperature to remove nonspecific staining, the tissue samples were subjected to overnight incubation at 4 °C with the primary antibody, LDHA (Proteintech (Rosemont, IL, USA), Cat No. 19987-1-AP, Lot: 00106920, rabbit anti-rat 1:200). On the next day, the slides underwent incubation using a secondary antibody. The slides underwent counterstaining using DAPI. […] slices were examined and visualized utilizing the VS200-BU Slide Scanner (Olympus Corporation, Tokyo, Japan).

LDH [9] = conditions: original ligand of the LDH co-crystal complex; cited from earlier work

C/C=C/c1ccc(OC(=O)CCCN2CCN(C(=O)/C=C/c3cc(OC)c(OC)c(OC)c3)CC2)c(OC)c1 [A3, methoxy-4-((E)-prop-1-en-1-yl)phenyl 4-(4-((E)-3-(3,4,5-trimethoxyphenyl)acryloyl)piperazin-1-yl)butanoate]
TD50 at 30 min [1]: 443 mg/kg
TD50 (mice [2]): weak neurotoxicity
SCPTZ Latent Time (100 mg/kg, s) (scPTZ-induced seizures [3]): 222.0 ± 14.7 s
SCPTZ Protective Ratio (100 mg/kg) (scPTZ-induced seizures [3]): 1/4
responders at 100 mg/kg ([4]; 100 mg/kg i.p., mice, 0.5 h, read-out: MES model, protected mice/total mice, 0.5 h (converted)): 100%
responders at 100 mg/kg ([4]; 100 mg/kg i.p., mice, 1 h, read-out: MES model, protected mice/total mice, 1 h (converted)): 75%
responders at 100 mg/kg ([4]; 100 mg/kg i.p., mice, 2 h, read-out: MES model, protected mice/total mice, 2 h (converted)): 50%
responders at 100 mg/kg ([4]; 100 mg/kg i.p., mice, 3 h, read-out: MES model, protected mice/total mice, 3 h (converted)): 25%
ED50 ([4]; mice, 95% confidence intervals in parentheses): 73.3 mg/kg
LDH Inhibition Ratio (0.1 mM) (LDH enzyme): 37.6 ± 8.1%

CC(C)(C)C(O)/C=C/c1ccc2c(c1)OCO2 (stereo not drawn) [STP, Stiripentol, reference compound]
silver staining, neurons in hippocampal CA1 and CA3 [5]: alleviated symptoms
TD50 (mice [6]): 161.7 (146.2–256.2) mg/kg
responders at 100 mg/kg ([4]; 0.5 h, read-out: MES model, protected mice/total mice, 0.5 h): 100%
responders at 100 mg/kg ([4]; 1 h, read-out: MES model, protected mice/total mice, 1 h): 50%
responders at 100 mg/kg ([4]; 2 h, read-out: MES model, protected mice/total mice, 2 h): 25%
responders at 100 mg/kg ([4]; 3 h, read-out: MES model, protected mice/total mice, 3 h): 0%
SCPTZ Latent Time (100 mg/kg, s) (scPTZ-induced seizures [7]): 269.5 ± 19.8 s
SCPTZ Protective Ratio (100 mg/kg) (scPTZ-induced seizures [7]): 2/4
LDH immunolabelling intensity (LDH [8]): lower than the values found in the PTZ group
LDH Inhibition Ratio (0.1 mM) (LDH enzyme): 46.1 ± 6.2%

O=C1N[C@](c2ccc(N3CCOCC3)cc2)(c2ccsc2)CC(O)=C1Sc1ccccc1Cl [GEN-140]
IC50 (LDH [9]): 3 nM
